# From patent US9149472B2, “Controlled release compositions for treatment of cognitive, emotional and mental ailments and disorders” (priority 2004, dated 2015)
# How the values were obtained:
# [1] = system: mild permanent cognitive and short term memory loss; experiment: Case study Patient 1: mild permanent cognitive and short term memory loss after mold exposure; assay type: in vivo, human
# Procedure: A case study of a patient having a long history of allergies was performed.
# A typical dosage of the Singulair® is about 10 mg.
# A 10 mg tablet can be taken orally upon awakening. […] In a typical implementation, the patient can take another 10 mg dose in about two hours after the initial dose. […] Similar booster dosages can be taken at 3-4 hour intervals throughout the day. […] The Singulair® product typically recommends 10 mg per day.
# In another embodiment, a zafirlukast product such as Accolate® and Vanticon® can be implemented. In one implementation, a 20 mg oral dose can be taken upon awakening followed by a 10 mg dose after 2 hours and a 10 mg repeated dose in 4 hours and a final dose of 20 mg another 4 hours later. […] The Accolate® recommended dosage is 20 mg in the morning and evening.
# [2] = system: decreased concentration and focus, memory recall and forgetfulness issues; experiment: Case study Patient 4: person with decreased concentration, focus and memory recall, plus depression and anxiety; assay type: in vivo, human; conditions: 10 mg in the morning along with an antidepressant, additional 10 mg about every 2 hours during waking hours
# Excerpt: A person with symptoms of decreased concentration and focus along with memory recall and forgetfulness issues. The patient was also diagnosed with depression and anxiety.
# [3] = system: symptoms of cognitive ailments; experiment: Case study Patient 6: person with cognitive ailments, single morning dose; assay type: in vivo, human
# [4] = system: symptoms of cognitive ailments; conditions: Patient 3
# [5] = system: memory loss, cognitive, emotional ailments
# Procedure: In most cases, treatment of these ailments requires multiple dosages of 5 mg to 20 mg over the course of the day.
# [6] = system: mild symptoms of forgetfulness; experiment: Case study Patient 2: person with mild symptoms of forgetfulness
# [7] = system: forgetfulness and problems with word recall; experiment: Case study Patient 5: person with forgetfulness and word recall problems
smiles,measurement,setting,value
"COc1cc(C(=O)NS(=O)(=O)c2ccccc2C)ccc1Cc1cn(C)c2ccc(NC(=O)OC3CCCC3)cc12 [Accolate®, zafirlukast]",focus and disposition,"[1]; Patient 1, oral 20 mg upon awakening, 10 mg after 2 hours, 10 mg after 4 hours, 20 mg 4 hours later, highest daily dosage 80 mg",heightened focus but results in a less “wired” disposition
CC(C)(O)c1ccccc1CC[C@@H](SCC1(CC(=O)[O-])CC1)c1cccc(/C=C/c2ccc3ccc(Cl)cc3n2)c1.[Na+] [montelukast sodium],time to relief / marked improvement after the initial higher dosage,"[1]; Patient 1, 20-30 mg upon waking",30 to 45 min
same,apathy,"[1]; Patient 1, about 20-30 mg",marked decrease in apathy
same,sense of humor,"[1]; Patient 1, about 20-30 mg",increase in sense of humor
same,"cognitive, mental and emotional improvement","[1]; Patient 1, about 20-30 mg (2-3 times the typical dosage)","marked cognitive, mental and emotional improvement"
same,effect of additional doses on relief,"[1]; Patient 1, additional 10 mg dose every four hours",continues the relief
same,time to return of symptoms after ceasing the dosage,"[1]; Patient 1, after the dosage is ceased",≤ 24 h
same,cognitive effect when taking the medication,"[1]; Patient 1, as prescribed for allergies, typical dosage about 10 mg",cognitive improvement
same,mental state under mega-dosing,"[1]; booster dosages of 5 mg about every 2 hours, maximum 40 mg in one day",very talkative mental states and highly sensitive mental alertness
same,symptoms,[2],significant improvement in symptoms
same,mental clarity and mood,[3]; 50 mg once upon rising in the morning,improved mental clarity in the morning and better mood throughout the day
same,mental clarity and mood,[3]; 80 mg once upon rising in the morning,improved mental clarity in the morning and better mood throughout the day
same,side effects,[4],No side effects noted
same,symptoms while on medication,"[4]; 10 mg in the morning, additional 10 mg about every 2 hours during waking hours",significant improvement in symptoms
same,mood with large immediate release dosages,[5]; immediate release dosages larger than 30 mg,improved mood
same,effect on ailments (overall finding),[5]; in most cases multiple dosages of 5 mg to 20 mg over the day,"alleviate and treat memory loss, forgetfulness, apathy, emotional and cognitive ailments, and depression"
same,side effects,[6],No side effects reported
same,time to improvement in symptoms after onset of medication use,"[6]; 20 mg in the morning, additional 10-20 mg about every 2 hours during waking hours",≤ 24 h
same,symptoms after stopping second course,[6]; after the five-day course was stopped,the symptoms returned again
same,time to recurrence of symptoms after discontinuation,[6]; stopped after over a week,≤ 24 h
same,symptoms during second course,"[6]; two weeks later, same regimen for five days",marked improvement in symptoms
same,other side effects,[7],No other side effects noted
same,time to improvement after initiation of the protocol,[7],≤ 24 h
same,memory and recall issues,"[7]; 10 mg in the morning, additional 10 mg about every 2 hours during waking hours, five days",significant improvement in memory and recall issues
same,sleep (side effect) at 6 doses daily,[7]; 6 doses of 10 mg daily,difficulty sleeping
same,time to recurrence of symptoms after discontinuation,[7]; discontinued after five days,24 to 48 h
same,sleep (side effect) at five doses daily,[7]; schedule reduced to five doses daily,the problem was resolved
